Experimental data as given in patent US7244730B2, “2-iminopyrrolidine derivatives” (Eisai Co., Ltd, priority 2001, dated 2007).
pIC50: −log10 of the molar value. Where a name gives a salt, the structure may show the parent alone. Read-outs that look alike come from different tables or passages of the source.

Tests used:
thrombin receptor = molecular target: T1, thrombin receptor (Homo sapiens, UniProt P25116); assay: Receptor binding assay ([3H] high affinity TRAP, platelet membrane)
T1 construct: centrifuged at 40,000 g for 60 minutes to yield platelet membrane; from tissue; host or cells: platelet membrane prepared from donor blood (platelet rich plasma)
T1 sequence (P25116 22-425): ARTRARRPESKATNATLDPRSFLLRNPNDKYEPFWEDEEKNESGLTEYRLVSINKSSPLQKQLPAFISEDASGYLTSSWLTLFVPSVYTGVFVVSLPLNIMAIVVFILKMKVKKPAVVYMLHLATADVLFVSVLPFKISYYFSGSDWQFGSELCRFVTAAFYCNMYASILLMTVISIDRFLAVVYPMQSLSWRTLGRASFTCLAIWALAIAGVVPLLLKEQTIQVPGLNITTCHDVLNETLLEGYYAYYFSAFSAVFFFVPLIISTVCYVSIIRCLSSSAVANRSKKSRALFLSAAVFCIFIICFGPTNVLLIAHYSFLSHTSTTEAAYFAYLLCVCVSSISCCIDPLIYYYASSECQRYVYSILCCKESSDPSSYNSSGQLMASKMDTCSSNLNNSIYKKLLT
Method: Blood was sampled from a healthy adult who had taken no drugs for one week, and 3.8% citric acid (a ratio of 1:9 with respect to the blood) was added as an anticoagulant. The mixture was then centrifuged at 100 g for 10 minutes at room temperature to yield platelet rich plasma (PRP). The platelet precipitate obtained by centrifuging the PRP was homogenized with a Dounce homogenizer, and then centrifuged at 40,000 g for 60 minutes to yield platelet membrane. The platelet membrane was suspended in a solution prepared by adding DMSO (dimethyl sulfoxide) at 1% concentration to Buffer 1: a 50 mM Tris-HCl buffer containing 10 mM MgCl2 and 1 mM EGTA (ethylene glycol tetraacetic acid), and the suspension was stored at −80° C. Bovine albumin and DMSO were added to Buffer 1 at 0.1% and 20%, respectively, to make preparation solutions for the test compound. The test compounds (20 μl) diluted at various concentrations with the preparation solutions were added to a 96-well multiscreen plate. […] After then adding 100 μl of the previously prepared platelet membrane suspension (0.4 mg/ml) and mixing, incubation was performed at 37° C. for 1 hour. The reaction mixture was suction filtered and then rinsed 3 times with 200 μl of Buffer 1. Next, 30 μl of liquid scintillator was added for measurement of the radioactivity of the plate using a Top Counter (Packard), the value of the radioactivity in the presence of the test compound minus non-specific binding portion was divided by the specific binding value (the value of the binding in the absence of the compound minus the non-specific binding portion) to determine the binding ratio, from which the IC50 value was calculated. The non-specific binding was the value obtained with addition of 10 μM of high affinity TRAP.

[1] = tested on: platelet rich plasma (PRP), thrombin-induced platelet aggregation; assay: Inhibitory effects on platelet aggregation using platelet rich plasma; type: cell-based; conditions: Homo sapiens, 0.1 h, read-out: Thr IC50
Method: [Inhibitory Effects on Platelet Aggregation Using Platelet Rich Plasma]
Blood was sampled from a healthy adult who had taken no drugs for one week, and 3.8% citric acid (a ratio of 1:9 with respect to the blood) was added as an anticoagulant. The mixture was then centrifuged at 100 g for 10 minutes at room temperature to yield platelet rich plasma (PRP). The PRP-removed blood was further centrifuged at 1000 g for 10 minutes to yield platelet poor plasma (PPP). The number of platelet was counted using a multi-parameter automatic hemocyte counter (K4500, Sysmex), and the PRP was diluted to approximately 300,000/μl with the PPP. The platelet aggregation activity was determined in the following manner using an Aggregometer (MC Medical). GPRP-NH2 (final concentration 1 mM, 25 μl) was added as a fibrin polymerization inhibitor to the PRP (175 μl), after which Ca-free Tyrode solution (control) or the test compound suspension (25 μl) at different concentrations was added, incubation was performed at 37° C. for 3 minutes and then 25 μl of thrombin at the minimum concentration required to produce maximum aggregation (final concentration: optimum concentration among 0.5–1.5 units/ml) was added, for initiation of platelet aggregation. PRP and Ca-free Tyrode solution (control) or the preparation solutions at various concentrations were pre-incubated at 37° C. for 60 minutes, prior to the platelet aggregation reaction in some experiments. After addition of thrombin, the aggregation reaction was examined for 6 minutes and the areas under the aggregation curves were compared to determine the inhibition ratio, from which the IC50 value was calculated.

[2] = tested on: Vascular smooth muscle cells (rSMC); assay: Rat smooth muscle cell proliferation assay; type: cell-based; conditions: 48 h; male SD rat aorta rSMC; thrombin 0.1 unit/ml; 2 days; MTT, OD 590 nm; read-out: Rat SMC IC50
Method: [Rat Smooth Muscle Cell Proliferation Assay]
Vascular smooth muscle cells (rSMC) were isolated from male SD rat aorta by the explant method. DMEM medium (Sigma) containing 10% fetal bovine serum (GibcoBRL), streptomycin and penicillin was used as the proliferation medium, and subculture was carried out at 37° C. in the presence of 5% CO2. Culture was initiated after adding 100 μl of rSMC suspension in proliferation medium at a concentration of 1×10^4 cells/ml, to a 96-well plate. After 3 days, cells were rinsed twice with 100 μl of DMEM medium, the medium was exchanged with 100 μl of DMEM medium containing 0.1% albumin (starvation medium), and serum starvation was initiated. The medium was exchanged two days after the serum starvation, 80 μl of starvation medium and 10 μl of the test compound diluted to different concentrations with the starvation medium were added, and then 10 μl of thrombin dissolved in the starvation medium (final concentration: 0.1 unit/ml) was added prior to further incubation for 2 days.
Upon adding 20 μl of MTT (3-[4,5-dimethylthiazol-2-yl]-2,5-diphenyltetrazolium bromide) dissolved in DPBS to 7.5 mg/ml, incubation was continued for 4 hours. The medium was removed by suction, 50 μl of a 10% SDS/0.029% ammonia solution was added, and the mixture was allowed to stand for 2 hours in a CO2 incubator for complete lysis of the cells. As an index of cell proliferation, the OD 590 nm was measured using a plate reader (EL340, BIO-TEK Instruments Inc.), and the control OD value (OD value in the absence of the test compound) minus the OD value in the presence of the test compound was divided by the control OD value minus the blank OD value (OD value without thrombin stimulation) to determine the inhibition ratio, from which the IC50 value was calculated.

[3] = platelet membrane of healthy adult, 25 nM [3H] high affinity TRAP, 37° C., 1 hour, read-out: RBA IC50
[4] = PRP of healthy adult, aggregation initiated with thrombin (0.5–1.5 units/ml), area under aggregation curve, 6 minutes

Row | SMILES | pIC50 (thrombin receptor; [3]) | pIC50 [1, 4] | pIC50 [2] | pIC50 (thrombin receptor) | pIC50 [1]
1 | CCOc1cc2c(c(F)c1OCC)C(=N)N(CC(=O)c1cc3c(c(C(C)(C)C)c1)OCCN3CC#N)C2 [Example 5, {8-tert-Butyl-6-[2-(5,6-diethoxy-7-fluoro-1-imino-1,3-dihydro-isoindol-2-yl)acetyl]-2,3-dihydrobenzo[1,4]oxazin-4-yl}acetonitrile hydrobromide] | 7.77 | 6.54 | 8.21 | – | –
2 | CCOc1cc2c(c(F)c1OCC)C(=N)N(CC(=O)c1cc(N(C)C)c(OC)c(C(C)(C)C)c1)C2 [Example 6, 1-(3-tert-Butyl-5-dimethylamino-4-methoxy-phenyl)-2-(5,6-diethoxy-7-fluoro-1-imino-1,3-dihydro-isoindol-2-yl)-ethanone hydrobromide] | 7.62 | 7.14 | 7.72 | – | –
3 | CCOc1cc2c(c(F)c1OCC)C(=N)N(CC(=O)c1cc(N3CCOCC3)c(OC)c(C(C)(C)C)c1)C2 [Example 7] | 7.59 | 7.39 | 7.49 | – | –
4 | CCOc1cc2c(c(F)c1OCC)C(=N)N(CC(=O)c1cc(N3CCC(O)CC3)c(OC)c(C(C)(C)C)c1)C2 [Example 8, 1-[3-tert-Butyl-5-(4-hydroxy-piperidin-1-yl)-4-methoxyphenyl]-2-(5,6-diethoxy-7-fluoro-1-imino-1,3-dihydro-isoindol-2-yl)-ethanone hydrobromide] | 7.54 | 7.08 | 7.64 | – | –
5 | CCOc1cc2c(c(F)c1OCC)C(=N)N(CC(=O)c1cc(NCC#N)c(OC)c(C(C)(C)C)c1)C2 [Example 10, (3-tert-Butyl-5-[2-(5,6-diethoxy-7-fluoro-1-imino-1,3-dihydro-isoindol-2-yl)-acetyl]-2-methoxy-phenylamino}-acetonitrile hydrobromide] | 7.59 | 7.62 | 7.47 | – | –
6 | CCOc1cc2c(c(F)c1OCC)C(=N)N(CC(=O)c1cc(N3CCN(CC#N)CC3)c(OC)c(C(C)(C)C)c1)C2 [Example 11, (4-{3-tert-Butyl-5-[2-(5,6-diethoxy-7-fluoro-1-imino-1,3-dihydro-isoindol-2-yl)-acetyl]-2-methoxy-phenyl}piperazin-1-yl)-acetonitrile hydrobromide] | 7.35 | 7.24 | 7.12 | – | –
7 | CCOc1cc2c(c(F)c1OCC)C(=N)N(CC(=O)c1cc(N3C[C@@H](O)[C@H](OC)C3)c(OC)c(C(C)(C)C)c1)C2 [Example 12, 1-[3-tert-Butyl-5-((3R,4R)-3-hydroxy-4-methoxy-pyrrolidin-1-yl)-4-methoxy-phenyl]-2-(5,6-diethoxy-7-fluoro-1-imino-1,3-dihydro-isoindol-2-yl)-ethanone trifluoroacetate] | 7.35 | 7.39 | 7.68 | – | –
8 | CCOc1cc2c(c(F)c1OCC)C(=N)N(CC(=O)c1cc(N3CCN(C(C)=O)CC3)c(OC)c(C(C)(C)C)c1)C2 [Example 13, 1-[3-(4-Acetyl-piperazin-1-yl)-5-tert-butyl-4-methoxy-phenyl]-2-(5,6-diethoxy-7-fluoro-1-imino-1,3-dihydro-isoindol-2-yl)ethanone hydrobromide] | 7.34 | 7.35 | 6.92 | – | –
9 | CCOc1cc2c(c(F)c1OCC)C(=N)N(CC(=O)c1cc(N3CCN(C(=O)COC)CC3)c(OC)c(C(C)(C)C)c1)C2 [Example 16, 1-{3-tert-Butyl-4-methoxy-5-[4-(2-methoxy-acetyl)piperazin-1-yl]phenyl}-2-(5,6-diethoxy-7-fluoro-1-imino-1,3-dihydro-isoindol-2-yl)-ethanone hydrobromide] | 7.28 | 7.24 | 7.23 | – | –
10 | CCOc1cc2c(c(F)c1OCC)C(=N)N(CC(=O)c1cc(N3C[C@H](OCC)[C@@H](O)C3)c(OC)c(C(C)(C)C)c1)C2 [Example 17, 1-[3-tert-Butyl-5-((3S,4S)-3-ethoxy-4-hydroxy-pyrrolidin-1-yl)-4-methoxy-phenyl]-2-(5,6-diethoxy-7-fluoro-1-imino-1,3-dihydro-isoindol-2-yl)ethanone trifluoroacetate] | 7.49 | 7.10 | – | – | –
11 | CCOc1cc2c(c(F)c1OCC)C(=N)N(CC(=O)c1cc(NC(C)C)c(OC)c(C(C)(C)C)c1)C2 [Example 26, 1-(3-tert-Butyl-5-isopropylamino-4-methoxy-phenyl)-2-(5,6-diethoxy-7-fluoro-1-imino-1,3-dihydro-isoindol-2-yl)-ethanone hydrobromide] | 7.77 | 7.10 | 7.21 | – | –
12 | CCOc1cc(C(=O)CN2Cc3cc(OCC)c(OCC)c(F)c3C2=N)cc(C(C)(C)C)c1OC [Example 28, 1-(3-tert-Butyl-5-ethoxy-4-methoxy-phenyl)-2-(5,6-diethoxy-7-fluoro-1-imino-1,3-dihydro-isoindol-2-yl)-ethanone hydrobromide] | 7.59 | 7.36 | 7.30 | – | –
13 | CCNC(=O)Oc1c(OCC)cc(C(=O)CN2Cc3cc(OCC)c(OCC)c(F)c3C2=N)cc1C(C)(C)C [Example 29, 2-tert-butyl-4-[2-(5,6-diethoxy-7-fluoro-1-imino-1,3-dihydro-isoindol-2-yl)-acetyl]-6-ethoxy-phenyl ethylcarbamate hydrobromide] | – | – | 7.15 | 7.12 | 7.28
14 | CCOc1cc2c(c(F)c1OCC)C(=N)N(CC(=O)c1cc(N3CCC(=O)CC3)c(OC)c(C(C)(C)C)c1)C2 [Example 94, 1-{3-tert-Butyl-5-[2-(5,6-diethoxy-7-fluoro-1-imino-1,3-dihydro-isoindol-2-yl)-acetyl]-2-methoxy-phenyl}-piperidin-4-one hydrobromide] | 7.89 | 7.54 | 7.36 | – | –
